Experimental findings from publication PMC12072147, “Antioxidant and Neuroprotective Properties of Selected Pyrrole-Containing Azomethine Compounds in Neurotoxicity Models In Vitro” (International Journal of Molecular Sciences, 2025) are described below.

The subject of data set [1] is isolated rat brain synaptosomes. Put plainly: 6-OHDA-induced neurotoxicity in isolated rat brain synaptosomes. The class given is cell-based. Conditions: for preserved GSH levels in synaptosomes / viability at 100 µM: 100 µM compound + 150 µM 6-OHDA; for preserved GSH levels in synaptosomes: compared to the 6-OHDA group; for viability at 100 µM: Rattus norvegicus, compared to 6-OHDA alone, read-out: preserved synaptosomal viability. As for the experimental part:
Synaptosomes and mitochondria were isolated by subcellular fractionation using a Percoll gradient, following the method described by Tauplin et al. and Sims et al.. Brain homogenate was prepared and centrifuged at 1000× g for 5 min at 4 °C. The supernatants were collected and centrifuged again at 1000× g for 5 min at 4 °C. The supernatants from both centrifugations were combined and distributed into four tubes. These tubes were then centrifuged at 10,000× g for 20 min at 4 °C three times. The final two centrifugations were performed to purify the synaptosomes and mitochondria.
The isolation process involves using a colloidal silicon solution, specifically Percoll. First, a 90% stock solution of Percoll is prepared. Next, Percoll solutions at concentrations of 16% and 10% are prepared, with 4 mL of each solution placed into six separate test tubes. To the precipitate from the final centrifugation step, 7.5% Percoll (derived from the 90% stock solution) is added. The tubes are then centrifuged at 15,000× g for 20 min at 4 °C. This procedure effectively isolates synaptosomes and mitochondria. After centrifugation, three distinct layers form in the tubes. The bottom layer contains mitochondria, the top layer contains lipids, and the middle layer—located at the 16% to 10% Percoll interface—contains synaptosomes. The corresponding layer from each tube is carefully removed using a glass Pasteur pipette and combined into one. Buffer B with glucose is then added to the mixture, which is centrifuged at 10,000 × g for 20 min at 4 °C, allowing the isolation buffer to be exchanged with the incubation buffer. After centrifugation, the pellet containing the synaptosomes is resuspended in Buffer B with glucose. Synaptosomes and mitochondria were incubated with the test substances at a concentration of 100 µM for 1 h.
This in vitro model mimics the neurodegenerative processes primarily observed in Parkinson’s disease (PD). The metabolism of 6-OHDA produces reactive quinones (p-quinone), which, in turn, generate reactive oxygen species (ROS). These reactive metabolites and ROS cause damage to both pre- and post-synaptic membranes, ultimately leading to neuronal cell damage. In this study, synaptosomes were incubated with 6-OHDA (150 μM) for 1 h to establish the model.
After a 1-h incubation with the substances and toxic agent, synaptosomes were centrifuged in a microcentrifuge at 15,000× g for 1 min. The pellet was gently mixed with Buffer B + glucose, and the supernatant containing 6-OHDA was discarded to prevent oxidation of 3-(4,5-dimethylthiazol-2-yl)-2,5-diphenyltetrazolium bromide, a tetrazole (MTT). The synaptosomes were centrifuged again at 15,000× g for 1 min. After the second wash, Buffer B + glucose was added to the pellet. Then, 60 µL of MTT solution was added to the “washed” synaptosomes. The plates were incubated with the MTT solution at 37 °C for 10 min. After incubation, the samples were centrifuged at 15,000× g for 2 min. The excess liquid was removed, and a DMSO solution was used to dissolve the formed formazan crystals. The amount of formazan was then measured spectrophotometrically at λ = 580 nm.
Following protein precipitation with trichloroacetic acid, the thiol groups in the supernatant were measured using DTNB, which produces a yellow-colored compound that absorbs light at λ = 412 nm. After incubation, synaptosomes were centrifuged at 4000× g for 3 min. The supernatant was removed, and the pellet was collected for GSH determination. The pellet was treated with 5% trichloroacetic acid and left on ice for 10 min. It was then centrifuged at 8000× g for 10 min at 2 °C. The supernatant was collected for GSH determination and frozen at −20 °C. Immediately before measurement, the samples were neutralized with 5N NaOH [50].

Data set [2] concerns SH-SY5Y cells. Put plainly: In vitro cytotoxicity in neuroblastoma cell line SH-SY5Y (MTT). The class given is cell-based. Conditions: Homo sapiens, 24 h treatment, 0.1-500 µM, read-out: IC50 (cell viability). As for the experimental part:
(§1) The neuroblastoma cell line SH-SY5Y was acquired from Sigma-Aldrich (ACACC cell lines). They were cultured in Roswell Park Memorial Institute 1640 (RPMI) cell medium supplemented with 10% heat-inactivated fetal bovine serum (FBS) and 2 mM L-glutamine. The cells were maintained at 37 °C in an atmosphere containing 5% CO2 in a humidified incubator.
SH-SY5Y cells were seeded in 96-well plates at a density of 2.5 × 10^4 cells/well. The plates were incubated for 24 h to ensure proper attachment. Cell viability assays were performed after treatment with the test compounds at concentrations of 0.1, 1, 5, 10, 50, 100, 250, and 500 μM, according to the protocol of Mosmann (1984). Each compound was tested in 6 wells. Following the treatment for 24 h, a solution of (3-(4,5-dimethylthiazol-2-yl)-2,5-diphenyltetrazolium bromide) MTT at a concentration of 5 mg/mL was prepared and briefly vortexed. The culture medium was aspirated and replaced with 100 μL of MTT solution in each well. The plates were then incubated for 3 h. After incubation, the formazan crystals were dissolved using 100 μL dimethylsulphoxide (DMSO), and the absorbance was measured at 570 nm (690 nm for the background absorbance) using a multiple reader Synergy 2 (BioTek Instruments, Inc., Highland Park, Winooski, VT, USA).

Data set [3] concerns isolated rat brain microsomes. Kind of data set: In vitro toxicity (prooxidant effect, MDA) on isolated rat brain microsomes. The class given is biochemical. As to conditions: 100 µM, vs untreated control microsomes. As to the method:
(§2) The brain was homogenized in 9 volumes of 0.1 M Tris buffer containing 0.1 mM dithiothreitol, 0.1 mM phenylmethylsulfonyl fluoride, 0.2 mM EDTA, 1.15% KCl, and 20% (v/v) glycerol (pH 7.4). The resulting homogenate was centrifuged twice at 17,000× g for 30 min. The supernatants from both centrifugation steps were combined and centrifuged twice at 100,000× g for 1 h. The pellet was then frozen in 0.1 M Tris buffer.
(§3) After incubating the microsomes with the substances and toxic agent, the reaction was stopped by adding 0.5 mL of 20% trichloroacetic acid, followed by 0.5 mL of 0.67% thiobarbituric acid. The reaction formed a colored complex between the malondialdehyde produced and thiobarbituric acid. The amount of malondialdehyde (MDA) was measured spectrophotometrically at 535 nm, using a molar extinction coefficient of 1.56 × 10^5 M^−1 cm^−1 for the calculation.

Data set [4] concerns isolated rat brain microsomes. Put plainly: Non-enzyme (Fe2+/AA) lipid peroxidation in isolated rat brain microsomes. As to conditions: 100 µM compound co-incubated with Fe2+/AA, compared to the Fe2+/AA group. In kind it is biochemical. As for the experimental part: as §2
Non-enzyme-induced lipid peroxidation was induced with 20 μM ferrous sulfate solution and 0.5 mM ascorbic acid solution [54].
as §3

For data set [5], the system named is SH-SY5Y cells. Put plainly: H2O2-induced oxidative stress model in neuroblastoma SH-SY5Y cells. The class given is cell-based, human. Conditions: H2O2 1 mM 10 min. As for the experimental part: as §1
In the oxidative stress model, SH-SY5Y cells (3.5 × 10^4 cells/well) were exposed to 1 mM H2O2 for 10 min. The cells were pre-treated for 1.5 h with the test compounds (0.1, 1, 5, 10, 20, and 50 µM). Subsequently, a H2O2 solution was added. Cell viability was assessed after 24 h by the MTT-dye reduction assay, as described above.
The results of the experiments performed on isolated brain synaptosomes, mitochondria, and microsomes were statistically processed using the ‘MEDCALC’ program using the non-parametric Mann–Whitney method at significance levels of p < 0.05, p < 0.01, and p < 0.001. Statistical analyses with the SH-SY5Y cell line were conducted on GraphPad Prism software (version 8, GraphPad Software, La Jolla, CA, USA). The significance of the data was assessed using one-way analysis of variance (ANOVA), followed by Dunnet’s test for post hoc multiple comparisons, to evaluate statistical differences. Values of * p ≤ 0.05, ** p ≤ 0.01, and *** p ≤ 0.001 were considered statistically significant. Cytoprotecting data were normalized as a percentage of the H2O2-treated control (defined as 0% viability). Statistical analysis was performed to compare the different groups of compounds. Statistical significance was determined using the Holm–Sidak method, with alpha = 0.05. Each row was analyzed individually, without assuming a consistent SD.

The test system of data set [6] is isolated brain mitochondria. Put plainly: t-BuOOH-induced oxidative stress in brain mitochondria. As to conditions: 100 µM compound + t-BuOOH, compared to t-BuOOH alone.
[7] abbreviates: 150 µM applied alone, vs untreated synaptosomes.

For `NCCc1cc(O)c(O)cc1O` [6-OHDA, 6-hydroxydopamine, reference compound], in data set [1] (setting [7]), the “decrease in synaptosomal viability by toxic agent alone” value is listed as 55% and the “reduction in GSH levels by toxic agent alone” value is recorded as 50%.
With `CCOC(=O)c1cc(-c2ccc(Br)cc2)n(C(Cc2c[nH]c3ccccc23)C(=O)N/N=C/c2cc(OC)c(O)c(OC)c2)c1C` (centres unmarked) [compound 7], the IC50 in the data set with SH-SY5Y cells [2] was more than 500 µM. Also, in data set [3], the “increase in MDA formation in microsomes” value was found to be 29%. Also, the “decrease of MDA production in microsomes” value in data set [4] came to 38%. For the same compound, in data set [1], the “preserved GSH levels in synaptosomes” value is 70% and the viability at 100 µM was 73%.
Turning to `CCOC(=O)c1cc(-c2ccc(Br)cc2)n(C(Cc2c[nH]c3ccccc23)C(=O)N/N=C/c2ccc(NC(C)=O)cc2)c1C` (centres unmarked) [compound 9], in the data set on SH-SY5Y cells [2], the IC50 was more than 500 µM. For the same compound, the “increase in MDA formation in microsomes” value in data set [3] is on record as 38%. In addition, the “decrease of MDA production in microsomes” value in data set [4] is 26%. In addition, the “preserved GSH levels in synaptosomes” value in data set [1] is given as 60%. Besides, in data set [1], the viability at 100 µM is 78%. Also, the “protective effect (neuroprotection)” value turned out to be 47% in the data set on SH-SY5Y cells [5] (5 µM pre-treatment 1.5 h) and 52% with SH-SY5Y cells [5] (10 µM pre-treatment 1.5 h).
Turning to `CCOC(=O)c1cc(-c2ccc(Br)cc2)n(C(Cc2c[nH]c3ccccc23)C(=O)N/N=C/c2ccc([N+](=O)[O-])o2)c1C` (centres unmarked) [compound 11], the 50% inhibitory concentration (IC50) in the data set on SH-SY5Y cells [2] amounted to 264 µM. Further, the “increase in MDA formation in microsomes” value in data set [3] came out at 41%. Also, the “decrease of MDA production in microsomes” value in data set [4] is 35%. In data set [1], the “preserved GSH levels in synaptosomes” value worked out at 60% and the viability at 100 µM was 69%. In data set [6], the “reduction of MDA production in mitochondria” value was found to be 41%.
As for `CCOC(=O)c1cc(-c2ccc(Br)cc2)n(C(Cc2c[nH]c3ccccc23)C(=O)N/N=C/c2ccccc2O)c1C` (centres unmarked) [compound 12], the IC50 in the data set on SH-SY5Y cells [2] was more than 500 µM. Further, the “increase in MDA formation in microsomes” value in data set [3] came to 35%. Besides, the “decrease of MDA production in microsomes” value in data set [4] is reported as 40%. Moreover, in data set [1], the “preserved GSH levels in synaptosomes” value is given as 80%. In addition, the viability at 100 µM in data set [1] stood at 82%. Besides, the “protective effect (neuroprotection)” value is on record as 48% in the data set with SH-SY5Y cells [5] (5 µM pre-treatment 1.5 h), 53% in the data set with SH-SY5Y cells [5] (10 µM pre-treatment 1.5 h), 50% with SH-SY5Y cells [5] (20 µM pre-treatment 1.5 h) and 32% in the data set with SH-SY5Y cells [5] (50 µM pre-treatment 1.5 h).
In the case of `CCOC(=O)c1cc(-c2ccc(Br)cc2)n(C(Cc2c[nH]c3ccccc23)C(=O)N/N=C/c2ccc3ccccc3c2)c1C` (centres unmarked) [compound 14], the half-inhibitory concentration (IC50) with SH-SY5Y cells [2] was more than 500 µM. Further, in data set [3], the “increase in MDA formation in microsomes” value was 39%. For the same compound, in data set [4], the “decrease of MDA production in microsomes” value is 37%. Moreover, in data set [1], the “preserved GSH levels in synaptosomes” value was 70% and the viability at 100 µM worked out at 60%. Besides, the “protective effect (neuroprotection)” value with SH-SY5Y cells [5] (5 µM pre-treatment 1.5 h) is 33%. For the same compound, the “protective effect (neuroprotection)” value in the data set with SH-SY5Y cells [5] (10 µM pre-treatment 1.5 h) came to 51%.
For `CCOC(=O)c1cc(-c2ccc(Br)cc2)n(C(Cc2c[nH]c3ccccc23)C(=O)N/N=C/c2c3ccccc3cc3ccccc23)c1C` (centres unmarked) [compound 15], the IC50 in the data set with SH-SY5Y cells [2] is more than 500 µM. Moreover, the “increase in MDA formation in microsomes” value in data set [3] amounted to 40%. Further, in data set [4], the “decrease of MDA production in microsomes” value came out at 36%. Besides, in data set [1], the “preserved GSH levels in synaptosomes” value amounted to 70% and the viability at 100 µM amounted to 64%.

A word on the IC50: it is the concentration needed to halve the response being measured. Broadly, the viability is a per cent measure of how many cells are alive, often set against a control.
